Data set [1] can be described thus: Cytotoxicity, SRB assay, HUVEC. It is filed as cell-based, human. As to conditions: human, HUVEC cells, 72-h treatment (footnote), read-out: In vitro cytotoxicity CC50 (μM, mean ± SD). On the procedure:
(§1) Cytotoxicity in terms of CC50 was determined by the SRB assay according to the protocol described in our previous publication.[16] Briefly, human HUVECs or HepG2 cells were seeded in the wells of 96-well plates at a concentration of 1 × 10^5 cells per well and incubated at 37 °C for 24 h. […] The cells were fixed with 10% trichloroacetic acid (w/v) at 4 °C for 1 h, washed five times with distilled water, and stained with 0.4% SRB solution at room temperature for another 20 min. The cells were then washed five times with 1% acetic acid and air-dried. The protein-bound dye was dissolved in 10 mM Tris-base solution and shaken for 5 min. The optical density (OD) was measured at 540 nm using a microplate reader to estimate the cell viability (%). With the viability values (%) of the cells treated by the compound at different concentrations as input, the CC50 value was determined by the non-linear regression with normalised dose-response fit implemented in GraphPad Prism version 5 software (GraphPad Software Inc., La Jolla, CA). The experiment was performed in duplicate, and paclitaxel was used as the positive drug for this assay.

The test system of another data set is HUVECs. The experiment in a line: Cytotoxicity, SRB assay, HUVEC. As to conditions: 72-h treatment (footnote), read-out: In vitro cytotoxicity CC50 (μM, mean ± SD). It is filed as cell-based, human. The protocol:
as §1
On the technique in general: Sulforhodamine B stains cellular protein and so reports cell mass.

In the next data set the test system is MRSA/VISA strains. Nature of the data set: MIC by broth microdilution, MRSA and VISA panel. The format is cell-based, S. aureus. The note with it: Staphylococcus aureus. The protocol: (§2) All of the bacterial strains used in this study were obtained from the Collection Centre of Pathogen Microorganism of Chinese Academy of Medical Sciences (CAMS-CCPM-A) in China. All of the isolates were stored at −80 °C and streaked on tryptic soy agar (TSA) plates to obtain overnight cultures. The MICs of the test compounds were determined by the broth microdilution method in accordance with the Clinical and Laboratory Standards Institute (CLSI) guidelines.[20] Cation-adjusted Mueller-Hinton broth (CAMHB) was used as the growth medium for MIC assays. Briefly, 100 μL of serially diluted compounds (starting concentrations were 64 μg/mL) in CAMH broth were added to the wells of 96-well microtiter plates. Then, 10 µL of 5 × 10^6 CFU/mL bacterial culture was added to each well. […] The MIC was defined as the lowest concentration of a compound that inhibited visual growth of the bacteria. Vancomycin was set as the positive control for this assay.
(Dilution methods test growth across graded concentrations, often in twofold steps.)

A short description of another data set: in vitro. The format is in vitro ADME, mouse. The note with it: mouse, plasma. The protocol:
The mouse plasma was purchased from Charles River and stored at −20 °C. The stock solution of the test compound dissolved in DMSO (50 mM) was prepared and diluted to obtain a working solution at the concentration of 0.2 mM. The working solution of the control compound, i.e. propantheline, was similarly prepared (0.2 mM). Terfenadine (5 ng/mL) and tolbutamide (10 ng/mL) dissolved in acetonitrile were used as two quenching solutions.
The mouse plasma was pre-warmed at 37 °C for 15 min. The working solution of the test/control compound (2 µL) was then added to the mouse plasma (398 µL) in a 96-well plate. Next, 30 µL of the reaction mixture was sampled and moved to 300 µL of quenching solutions at each time point: 0, 5, 15, 30, 60, and 120 min for the control compound and 0, 15, 30, 60, and 120 min for the test compound. When the sampling was done, each sample was centrifuged at 4000 rpm at 4 °C for 15 min. Then, 100 µL of the supernatant was removed and mixed with 100 µL of distilled water for LC-MS/MS analysis with Shimadzu HPLC system and the AB Sciex API 4000 QTRAP instrument. The remaining compound (%) after incubation in plasma versus the incubation time was plotted. The half-life (t1/2) value of the compound was determined via linear regression from the plot.

The test system of data set [2] is methicillin-sensitive S. aureus (MSSA). Nature of the data set: MIC by broth microdilution, MSSA isolates. As to conditions: Staphylococcus aureus. It is filed as cell-based. The protocol: as §2

The structures appear in SMILES notation. ≈ marks a conversion by molar mass, not a printed value. Where two headings read alike, the source gives them in different places.

In general, CC50 refers to the concentration at which the toxic effect on the cells reaches its halfway point. A word on the half-life: it is the time in which the quantity being followed falls by half. Read a high half-life as slow loss. As to `CCCCCc1nc2ccccc2c(=O)n1NC(=O)c1c(O)c2ccccc2n(CC)c1=O` [f1, N-(4-oxo-2-pentylquinazolin-3(4H)-yl)-1-ethyl-4-hydroxy-2-oxo-1,2-dihydroquinoline-3-carboxamide], in data set [1], the CC50 at 72 h was ~50 µM. In the data set on HUVECs, the CC50 was determined as 51.5 ± 4.5 µM. Besides, the MIC was 4 to 16 µg/mL with MRSA/VISA strains (ATCC 33591 / ATCC 43300 / ATCC 700699 / MRSA / VISA, span over ATCC 33591, ATCC 43300, 18-2, ATCC 700699, HIP 5836, HIP 5827, read-out: MICs for MRSA and VISA strains); 8.97 to 35.9 µM with MRSA/VISA strains (span over tested MRSA/VISA strains, read-out: MICs for MRSA/VISA strains converted to); 4 to 8 µg/mL (≈ 8.96 to 17.9 µM) in data set [2] (ATCC 29213 / BAA-1708 / BAA-976 / MSSA, ATCC 29213, 15, 18-3, BAA976, BAA1708, span over isolates, read-out: MIC over the five MSSA isolates); 4 µg/mL (≈ 8.96 µM) in data set [2] (ATCC 29213 / MSSA, MSSA ATCC 29213, read-out: MIC); 4 µg/mL (≈ 8.96 µM) in data set [2] (BAA-976 / MSSA, MSSA BAA976, read-out: MIC); 4 µg/mL (≈ 8.96 µM) in data set [2] (BAA-1708 / MSSA, MSSA BAA1708, read-out: MIC). Moreover, the MIC is 8 µg/mL (≈ 17.9 µM) in data set [2] (MSSA, MSSA 15, read-out: MIC) and 4 µg/mL (≈ 8.96 µM) in data set [2] (MSSA, MSSA 18-3, read-out: MIC). Moreover, the half-life at 1 µM in “in vitro” was > 6.21 h.

Source of the values: PMC9186351, “Discovery of N-quinazolinone-4-hydroxy-2-quinolone-3-carboxamides as DNA gyrase B-targeted antibacterial agents” (Journal of Enzyme Inhibition and Medicinal Chemistry, 2022).
